Measurements from PubChem BioAssay AID588401 (Johns Hopkins Ion Channel Center, 2011).
The source made the active and inactive calls.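 The calls were made as follows: active = blocks the choline transporter at some tested dose and yields a fitted dose response curve; inconclusive = no clear call, values can overlap the other calls; inactive = no blocking at any dose or no curve.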

Biological target: High affinity choline transporter 1 (Homo sapiens) (UniProt Q9GZV3)
Experiment: human choline transporter blockers, potency – cell-based, 10-point CRC, membrane potential dye, dose response (AID 588401)
Settings: HEK293-CHT, choline-induced depolarization; for inhibition (negative values = inhibition): at 25 µM (top of the series)

High affinity choline transporter 1 (Homo sapiens), sequence (Q9GZV3 whole entry, looked up): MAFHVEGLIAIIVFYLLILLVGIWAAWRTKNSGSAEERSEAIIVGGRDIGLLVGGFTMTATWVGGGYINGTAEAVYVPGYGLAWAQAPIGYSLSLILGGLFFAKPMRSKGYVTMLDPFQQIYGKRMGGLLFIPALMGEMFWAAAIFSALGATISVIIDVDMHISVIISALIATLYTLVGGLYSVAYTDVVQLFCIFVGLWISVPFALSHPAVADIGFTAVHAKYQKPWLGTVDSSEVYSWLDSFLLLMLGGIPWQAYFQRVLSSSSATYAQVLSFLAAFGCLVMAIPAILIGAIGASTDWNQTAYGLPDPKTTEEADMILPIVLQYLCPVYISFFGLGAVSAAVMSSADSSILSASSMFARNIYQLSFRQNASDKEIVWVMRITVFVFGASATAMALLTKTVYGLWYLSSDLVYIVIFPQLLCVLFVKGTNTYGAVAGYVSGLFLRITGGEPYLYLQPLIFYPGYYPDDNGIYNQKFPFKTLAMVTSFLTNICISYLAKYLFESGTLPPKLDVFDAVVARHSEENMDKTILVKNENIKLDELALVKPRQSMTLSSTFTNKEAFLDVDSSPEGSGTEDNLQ

| Compound | inhibition (negative values = inhibition) (cells express LV-AA mutant CHT) | other results |
| --- | --- | --- |
| CC#CCN(CC#CC)S(=O)(=O)c1ccc(-n2cnnn2)c(OC)c1 | inactive | – |
| CCCn1nc2cc(C(=O)NCc3ccc(C)cc3)ccc2c1OCC | inactive | – |
| Cc1ccccc1CCNCc1cc2cccc(C)c2[nH]c1=O | inactive | – |
| Oc1c(Cl)cc(Cl)cc1C=Nc1ccc2c(c1)OCCO2 | inactive | – |
| O=C(O)C1CCN(c2nc(-c3ccccc3)nc3c2oc2ccccc23)CC1 | inactive | – |
| COc1cc2c(cc1OC)-c1cc(NC3CCCCCCC3)nc(=O)n1CC2 | inactive | – |
| O=C(c1c(O)c2ccccc2oc1=O)C1CCCCC1 | inactive | – |
| CCN1CCn2c3c(c4cc(Cl)ccc42)CCCC31 (centres undefined) | inactive | – |
| CC(/C=C1\SC(=S)N(NS(=O)(=O)c2ccccc2)C1=O)=C\c1ccccc1 | inactive | – |
| O=C(Nc1ccccc1C(=O)NCCCN1CCOCC1)c1ccc(F)cc1 | inactive | – |
| N#CC(C#N)=C(Nc1ccc(F)cc1)SCc1cccc(F)c1 | inactive | – |
| Cc1ccc(-n2cc(CN3CCN(Cc4nccn4C)CC3)c(-c3ccc(F)cc3)n2)cc1 | inactive | – |
| CCCCc1cc(O)c(CCCC)c(O)c1 | inactive | – |
| C/C(=N/NC(=O)c1cc(Cl)ccc1O)C12CC3CC(CC(C3)C1)C2 | inactive | – |
| COc1ccc(C(=O)NC(Cc2ccc(OC(=O)c3ccc(OC)cc3)cc2)C(=O)O)cc1 (centres undefined) | inactive | – |
| CC1(C)CC2CC(C)(CN2c2ncnc3ccccc23)C1 (centres undefined) | inactive | – |
| CN(Cc1cccs1)c1ncnc2sccc12 | inactive | – |
| COc1cc(CNc2ccc(N3CCCCC3)cc2)ccc1OCC(=O)NC(C)(C)C | inactive | – |
| COc1ccc(OC)c(/C=C2\SC(=S)N(NS(=O)(=O)c3ccccc3)C2=O)c1 | inactive | – |
| C=CCSc1nc2ccccc2n1Cc1nnc(-c2cccs2)o1 | inactive | – |
| c1ccc(CCNc2c3c(nc4ncnn24)CCC3)cc1 | inactive | – |
| O=C(CSc1nnc(-c2ccncc2)n1Cc1ccco1)c1ccc(Cl)cc1 | inactive | – |
| CCCc1ccc(OCc2ccc(C(=O)NCc3cccnc3)o2)c(OC)c1 | inactive | – |

| Compound | inhibition (negative values = inhibition) (cells express LV-AA mutant CHT) | other results |
| --- | --- | --- |
| COc1ccc(-n2c(=S)[nH]c3cc(C(=O)NCCCN4CCOCC4)ccc3c2=O)cc1 | inactive | – |
| Cc1ccc(S(=O)(=O)N2[C@@H](c3ccc(Cl)cc3)C(C(=O)O)=CC[C@H]2c2ccc(Cl)c(Cl)c2)cc1 | inactive | – |
| CCCc1cc(NCC2CCCO2)n2c(nc3ccccc32)c1C#N (centres undefined) | inactive | – |
| COc1cc(/C=C2\S/C(=N/S(=O)(=O)Cc3ccccc3)NC2=O)c([N+](=O)[O-])cc1OC | inactive | – |
| CCN(Cc1ccccc1)S(=O)(=O)c1cc(C(=O)NC2CCCCCC2)ccc1OC | inactive | – |
| COc1ccccc1Nc1nnc(SCC2CCCCO2)s1 (centres undefined) | inactive | – |
| N=c1n(Cc2ccccc2)c2ccccc2n1CC(O)COc1ccccc1 (centres undefined) | inactive | – |
| Oc1ccc(C[C@H]2NCCc3cc(O)c(O)cc32)cc1O | inactive | – |
| O=C(c1ccc(Cl)c(S(=O)(=O)N2CCCC2)c1)N1CCN(c2ccccc2)CC1 | inactive | – |
| O=[N+]([O-])c1ccc(S(=O)(=O)Nc2nc(-c3ccccc3)cs2)cc1 | inactive | – |
| Cc1nn(-c2ccccc2)c2[nH]c(=O)cc(C(F)(F)F)c12 | inactive | – |
| Cc1ccc(C(=O)NC2CCCC(C)C2C)cc1S(=O)(=O)N1CCCCC1 (centres undefined) | inactive | – |
| CCS(=O)(=O)C1=NN2C(=N)/C(=C\c3ccc(OS(=O)(=O)c4ccccc4)cc3)C(=O)N=C2S1 | inactive | – |
| CC1(C(=O)N2CCC(CC3CC(c4ccc(Cl)cc4)=NO3)(C(=O)NCC3CCCCC3)CC2)CC1 (centres undefined) | inactive | – |
| O=c1c2cc(Br)ccc2nc(-c2ccc(Cl)cc2)n1O | inactive | – |
| CCCn1nc(NS(=O)(=O)c2cccc3nonc23)c2cc3cccc(C)c3nc21 | – | IC50 (cells express LV-AA mutant CHT): 3.55 µM |
| Cc1ccc(NC(=O)c2ccc(CN3CC(=O)N4CCCCC4C3=O)cc2)c(C)c1 (centres undefined) | – | IC50 (cells express LV-AA mutant CHT): 4.47 µM |
| Cc1cc(CN(C)C(=O)c2cc(COc3ccc(F)cc3Cl)on2)n[nH]1 | inactive | – |
| COc1cc(NC(=O)c2csc(-c3ccncc3)n2)cc(C(=O)Nc2cccc(C(F)(F)F)c2)c1 | inactive | – |
| COc1cccc(OC)c1OCCCCCc1c(C)n[nH]c1C | inactive | – |
| O=C(COC(=O)CCCSc1nc2ccccc2[nH]1)NC(=O)NC1CCCC1 | inactive | – |
| CCOC(=O)c1c(NC(=O)C2C3C=CC(C3)C2C(=O)O)sc2c1CCC(CC)C2 (centres undefined) | inactive | – |
| O=S(=O)(c1ccccc1F)N1CCN(CCc2ccccc2)CC1 | inactive | – |

| Compound | inhibition (negative values = inhibition) (cells express LV-AA mutant CHT) | other results |
| --- | --- | --- |
| CC(C)(C)S(=O)(=O)/C(C#N)=N/Nc1ccc(Cl)cc1 | inactive | – |
| CC(/C=N/NC(=O)c1cc(-c2ccncc2)nc2ccccc12)=C\c1ccco1 | inactive | – |
| Cc1noc(NS(=O)(=O)c2ccc(NC(=O)COc3ccc(Cl)cc3Cl)cc2)c1C | inactive | – |
| COc1ccc(C2=Nn3c(nnc3C3CCCCC3)SC2)cc1OC | inactive | – |
| O=C(N/N=C/c1ccsc1)c1c[nH]c2ccccc12 | inactive | – |
| Oc1cccc(C(O)CNCc2ccc(OCc3ccc(Cl)cc3Cl)cc2)c1 (centres undefined) | inactive | – |
| CCOC(=O)C1CCN(Cc2c(O)c3ccccc3oc2=O)CC1 | inactive | – |
| CC(C)c1nnc(NC(=O)c2nc(S(=O)(=O)Cc3ccccc3)ncc2Cl)s1 | – | IC50 (cells express LV-AA mutant CHT): 4.47 µM |
| COc1ccc(C(C(=O)NC2CCCCC2)N(C(=O)c2ccco2)c2ccccc2C(C)=O)cc1OC (centres undefined) | inactive | – |
| Cc1nn2c(N3CCN(C)CC3)c3c(nc2c1-c1ccccc1)CCCC3 | inactive | – |
| Cc1c(C(=O)OC(C)C)sc(NC(=O)c2cccnc2)c1C#N | inactive | – |
| O=C(C1CCCN(c2ncnc3c2nc2n3CCCCC2)C1)N1CCN(c2ccc(Cl)cc2)CC1 (centres undefined) | inactive | – |
| CC1(C)CC(=O)C=C(Nc2cccc(Cl)c2Cl)C1 | inactive | – |
| O=S(=O)(c1ccc(N2CCCC2)nc1)N1CCCC1 | inactive | – |
| c1ccc(CN2CCN(c3nc4ccccc4n4cnnc34)CC2)cc1 | inactive | – |
| CCCN(CCC)c1nc(N(CCC)CCC)[nH]c(=O)n1 | inactive | – |
| Cc1cc(OC(C)C(=O)Nc2ccc(S(=O)(=O)Nc3onc(C)c3C)cc2)cc(C)c1Cl (centres undefined) | inactive | – |
| CCOCCCNC(=O)/C(C#N)=C/c1ccc([N+](=O)[O-])o1 | inactive | – |
| CN(C)CCCn1c(=O)n(C2CCCCC2)c(=O)c2c3c(sc21)CCCCC3 | inactive | – |
| Fc1ccc(NC(=S)Nc2ccc(F)c(Cl)c2)cc1Cl | inactive | – |
| Cc1cc(-c2ccccc2)n(-c2ccc(C(=O)N3CCN(c4ncccn4)CC3)cc2)n1 | inactive | – |
| COc1cccc(/C=C2\SC(=S)N(NS(=O)(=O)c3ccccc3)C2=O)c1OC | inactive | – |
| C=CCn1c(O)c(C(CC)=NC(C)c2ccccc2)c(=O)[nH]c1=O (centres undefined) | – | inhibition (negative values = inhibition): inactive |

| Compound | inhibition (negative values = inhibition) (cells express LV-AA mutant CHT) | other results |
| --- | --- | --- |
| C=C(C)CSc1nnc(CCCCCNC(=O)OC(C)(C)C)o1 | inactive | – |
| O=C1ON=C(c2ccccc2)/C1=C/c1ccc(O)c(O)c1 | inactive | – |
| Cc1cccc(C(=O)NNC(=S)NC(=O)c2ccccc2)c1 | inactive | – |
| CCCOc1ccc(C(CC(=O)O)NC(=O)c2sc3ccccc3c2Cl)cc1 (centres undefined) | inactive | – |
| Cc1ccc(-c2cccc(CN3CCN(C(C)C)C(CCO)C3)c2)o1 (centres undefined) | inactive | – |
| O=C(CSc1nc2ccccc2[nH]1)c1ccc2c(c1)OCO2 | inactive | – |
| C/C(=N\NS(=O)(=O)c1ccc(Cl)c([N+](=O)[O-])c1)c1cc2ccccc2o1 | inactive | – |
| Cc1ccc(C(=O)NC2CCCCC2)cc1S(=O)(=O)N1CCCC1 | inactive | – |
| COc1ccc(C/C(O)=C(\C#N)c2nc3ccccc3s2)cc1 | inactive | – |
| C[C@H](NC(=O)OC(C)(C)C)c1nnc(SCC(=O)c2ccc(Cl)cc2)o1 | inactive | – |
| CC1CCCCC1NC(=S)Nc1ccc(SC(F)F)cc1 (centres undefined) | inactive | – |
| Cc1csc(NC(=O)CSc2nc(C(C)C)nc3ccccc23)n1 | inactive | – |
| CCOc1ccc(/C=C2\SC(=S)N(NS(=O)(=O)c3ccccc3)C2=O)cc1OC | inactive | – |
| Cc1ccc(S(=O)(=O)N2[C@@H](c3ccc(Cl)cc3)C(C(=O)O)=CC[C@H]2c2ccc(Cl)cc2)cc1 | inactive | – |
| CCOC(=O)c1cccc(NC(=O)CSc2nnc(C)n2Cc2ccccc2)c1 | inactive | – |
| Cc1ccccc1-n1c(C)cc(/C=N/NC(=O)c2ccc(CN3CCOCC3)cc2)c1C | inactive | – |
| Cc1cccc(C(=O)Nc2cccc(OCC(=O)O)c2)c1 | inactive | – |
| O=C(CSc1nnc(-c2ccco2)n1Cc1ccco1)NCc1cccs1 | inactive | – |
| CCc1ccc2oc(C(=O)NCC(c3ccc(OC)cc3)N3CCCCC3)c(C)c2c1 (centres undefined) | inactive | – |
| CCN1CCN(CCNC(=O)c2ccc3nc(-c4cccc(C)c4)c(-c4cccc(C)c4)nc3c2)CC1 | inactive | – |
